Tests used:
[1] = test system: uninephrectomy chronic kidney disease model in Munich Wister Fromter rats; experiment: Gentamicin induced nephrotoxicity in uninephrectomy chronic kidney disease rat model, with or without RAP; details: for Urinary protein: CKD pretreatment baseline 221±40; for Serum Cr: daily gentamicin 100 mg/kg intraperitoneal with RAP 40 mg/kg intravenous, p<0.01 vs without RAP
Protocol: Rats with a Chronic Kidney Disease (CKD) background were given either saline or 40 mg/kg RAP. […] Serum creatinine, an indicator of renal function, was measured in both rat populations at day 0, 3, 4, 5, and 6.

[2] = test system: fluid phase and Megalin mediated clathrin mediated endocytosis in S1 and non-S1 proximal tubule segments; experiment: Intra-vital 2-photon quantification of proximal tubule uptake of fluorescent endocytic markers after RAP or vehicle; format: in vivo, rat
Protocol: Rats were given either RAP or saline vehicle followed by a bolus containing a fluid phase endocytic marker (10,000 MW Cascade Blue Dextra, CB-dex) and a receptor mediated uptake marker (Texas Red Rat Serum Albumin, Rat Albumin). […] The results of this experiment are illustrated in FIG. 3. […] Ten minutes later, a bolus of Texas Red rat serum albumin (TR-RSA) and 10 kDa Cascade Blue dextran was given. […] Images collected from these studies at approximately 15, 30, and 60 minutes post initial infusion were quantified for TR-RSA and 10 kDa dextran uptake in either vehicle or RAP treated rats, in both S1 and non-S1 proximal tubule segments. Values were reported as normalized fluorescence, with the values normalized to the highest average value in the study group. […] The differences between vehicle and RAP treated were significant at all three time points studied and in both the S1 and non-S1 proximal tubule segments. […] The lower glomerular sieving coefficient of the RSA results in less RSA filtration and this a slower, protracted uptake that appears linear over time, with the S1 segment having the greatest accumulation.

[3] = test system: fluid phase and Megalin mediated clathrin mediated endocytosis in S1 and non-S1 proximal tubule segments; experiment: as above; format: in vivo, rat; remark: listed apart in the source
[4] = RAP vs saline vehicle, 15', 30', 60' post bolus, S1 and non-S1 segments, FIG. 3
[5] = S1 segment, 60 minutes post initial bolus infusion, RAP 40 mg/Kg, FIG. 4B
[6] = normal rats, over 60 minutes, RAP 40 mg/kg intravenous

Substance	Urinary protein ([1]; gentamicin without RAP)	10,000 MW Cascade Blue Dextran (CB-dex) proximal tubule uptake and accumulation [2, 4]	Texas Red Rat Serum Albumin proximal tubule uptake and accumulation [2, 4]	10 kDa dextran accumulation in single plane images [2, 5]	TR-RSA uptake in single plane images [2, 5]	Reduction of 10 kDa Cascade Blue dextran uptake vs vehicle ([2]; S1 segment, RAP 40 mg/Kg, FIG. 4C)	RSA uptake (normalized fluorescence) compared to vehicle treated rats ([2]; about 15, 30 and 60 minutes, both S1 and non-S1 proximal tubule segments, FIG. 4E, 4F)	Reduction of 10 kDa Cascade Blue dextran uptake vs vehicle ([2]; non-S1 proximal tubule segments, RAP 40 mg/Kg, FIG. 4D) [fold]	Reversibility of the reduction of S1 proximal tubule uptake ([2]; normal rats)	Reduction of S1 proximal tubule albumin uptake [2, 6] [%]	Reduction of S1 proximal tubule dextran uptake [2, 6] [%]	Nature of the inhibition of endocytosis ([2]; without causing lasting effects on kidney function)	Serum creatinine (indicator of renal function), change over time ([1]; CKD rats, RAP 40 mg/kg plus gentamicin 100 mg/kg intraperitoneal daily for five days, day 0, 3, 4, 5, 6, FIG. 1)	Serum Cr ([1]; day 5) [mg/dL]	Serum Cr ([1]; day 6) [mg/dL]	24-hour creatinine clearance ([1]; gentamicin with RAP, CKD pretreatment baseline 0.91=0.22 ml/min) [mL/min]	Urinary protein ([1]; gentamicin with RAP) [mg/ml/100 μm wt]	Texas Red Gentamicin accumulation (average fluorescence intensity) ([3]; RAP 40 mg/kg vs saline vehicle, then single bolus of Texas Red Gentamicin, S1 and non-S1 proximal tubule segments, FIG. 2)	Reduction of S1 proximal tubule gentamicin uptake [3, 6] [%]
gentamicin [reference compound]	2,512 mg/ml/100 μm wt																		
RAP: 39 kD protein, molecular chaperone for LDL receptor-related proteins such as Megalin; endocytosis inhibitor; SEQ ID NO 1-3 (human, rat, mouse)		reduction	reduction	only faint accumulation	virtually no uptake	over 5 fold	significantly reduced	2	rapid fully reversible	80	67	temporary and reversible	did not exhibit the same increase in serum creatinine	1.4 ± 0.5	1.5 ± 0.5	0.49 ± 0.16	488	Decreased	62
